Results on three molecules are retold here after PMC6308799, “In vitro and in vivo Inhibitory Activity of NADPH Against the AmpC BER Class C β-Lactamase” (Frontiers in Cellular and Infection Microbiology, 2018).

Assay [1] concerns the target T1, AmpC EC2 (Escherichia coli, UniProt A7TUE6). The assay can be described thus: nitrocefin hydrolysis initial velocity at […] ([…] inhibition range for the set). The format is biochemical.
Assay [2] has as its target T1, AmpC EC2. The assay can be described thus: ITC (KD […]); also steady-state nitrocefin kinetics (competitive, Ki […]). The format is binding.
A further assay addresses T2, CMY-2 (Klebsiella pneumoniae, UniProt Q48434).
T2 construct: gene blaCMY-2
The assay can be described thus: nitrocefin hydrolysis initial velocity at […] NADPH. The format is biochemical.

The target in assay [3] is T1, AmpC EC2. Put plainly: nitrocefin hydrolysis initial velocity at […] NADPH. The format is biochemical.
The target of a further assay is T3, CMY-10 (Klebsiella aerogenes, UniProt Q99QC1).
T3 construct: gene blaCMY-10
Put plainly: nitrocefin hydrolysis initial velocity at […] NADPH. The format is biochemical.

As to `Cc1cc2nc3c(=O)[nH]c(=O)nc-3n(C[C@H](O)[C@H](O)[C@H](O)COP(=O)(O)OP(=O)(O)OC[C@H]3O[C@@H](n4cnc5c(N)ncnc54)[C@H](O)[C@@H]3O)c2cc1C` [FAD], the “nitrocefin hydrolysis initial velocity at 2 mM (~15-55% inhibition range for the)” value on AmpC EC2 [1] is “all tested adenosine dinucleotides including FAD, NAD, NADP, and NADPH reduced the initial velocity of nitrocefin hydrolysis catalyzed by AmpC BER”.
At AmpC EC2 [2], `NC(=O)C1=CN([C@@H]2O[C@H](COP(=O)(O)OP(=O)(O)OC[C@H]3O[C@@H](n4cnc5c(N)ncnc54)[C@H](OP(=O)(O)O)[C@@H]3O)[C@@H](O)[C@H]2O)C=CC1` [NADPH] showed a Kd of 40 µM. Also, the “nitrocefin hydrolysis initial velocity at 2 mM NADPH” value at CMY-2 is “NADPH also reduced the initial velocity of nitrocefin hydrolysis catalyzed by other class C β-lactamases including ACC-1, AmpC EC2, CMY-2, and CMY-10”; on AmpC EC2 [3] it was “NADPH also reduced the initial velocity of nitrocefin hydrolysis catalyzed by other class C β-lactamases including ACC-1, AmpC EC2, CMY-2, and CMY-10”; at CMY-10, “NADPH also reduced the initial velocity of nitrocefin hydrolysis catalyzed by other class C β-lactamases including ACC-1, AmpC EC2, CMY-2, and CMY-10”.
As for `NC(=O)c1ccc[n+]([C@@H]2O[C@H](COP(=O)([O-])OP(=O)(O)OC[C@H]3O[C@@H](n4cnc5c(N)ncnc54)[C@H](O)[C@@H]3O)[C@@H](O)[C@H]2O)c1` [NAD], the “nitrocefin hydrolysis initial velocity at 2 mM (~15-55% inhibition range for the)” value on AmpC EC2 [1] is “all tested adenosine dinucleotides including FAD, NAD, NADP, and NADPH reduced the initial velocity of nitrocefin hydrolysis catalyzed by AmpC BER”.

What is called Kd is the concentration at which binding is half-saturated. Lower therefore signals higher affinity.
